# Reference: article PMC9279627 (Acta Pharmaceutica Sinica. B, 2021)
# Assays:
# [1] = target: T1, CYP2C9 (Homo sapiens, UniProt P11712); type: biochemical; settings: for Modulation of CYP2C9 activity in visual high-throughput screen: clinical drugs 10 μmol/L, DDAM 10 μmol/L, HLM, 96-well microplate; for Concentration-dependent inhibitory effect toward CYP2C9: 0.1, 0.5, 1, 10 and 20 μmol/L, DDAM, Fig. 4B
# [2] = target: T1, CYP2C9; settings: DDAM 10 μmol/L, Fig. S6
# [3] = system: CYP2J2 in HeLa and HepG2 cells; assay: Confocal fluorescence imaging of CYP2J2 activity by MXMB in living cells; type: cell-based, human; settings: Fig. S13
# T1 sequence (P11712 whole entry): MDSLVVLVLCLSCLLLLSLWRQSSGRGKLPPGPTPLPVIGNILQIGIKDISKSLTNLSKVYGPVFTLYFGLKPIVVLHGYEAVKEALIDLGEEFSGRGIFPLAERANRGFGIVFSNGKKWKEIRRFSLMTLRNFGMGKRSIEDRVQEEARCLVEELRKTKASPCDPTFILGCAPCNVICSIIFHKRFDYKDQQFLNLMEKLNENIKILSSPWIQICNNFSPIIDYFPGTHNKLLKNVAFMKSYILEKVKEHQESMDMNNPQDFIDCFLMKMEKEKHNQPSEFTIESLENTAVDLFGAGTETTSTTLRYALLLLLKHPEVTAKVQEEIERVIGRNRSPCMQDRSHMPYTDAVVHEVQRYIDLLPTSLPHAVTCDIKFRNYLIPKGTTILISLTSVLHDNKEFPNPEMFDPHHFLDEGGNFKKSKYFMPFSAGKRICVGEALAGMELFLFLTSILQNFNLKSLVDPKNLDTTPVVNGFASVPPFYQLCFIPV
Modulation of CYP2C9 activity in visual high-throughput screen [1],Structure (SMILES),also measured
activators,COc1ccc2[nH]c([S+]([O-])Cc3ncc(C)c(OC)c3C)nc2c1 (stereo not shown) [omeprazole],
activators,Cc1c(OCC(F)(F)F)ccnc1C[S+]([O-])c1nc2ccccc2[nH]1 (stereo not shown) [lansoprazole],
activators,COC(=O)Nc1nc2ccc(C(=O)c3ccccc3)cc2[nH]1 [mebendazole],
activators,COc1ccnc(C[S+]([O-])c2nc3ccc(OC(F)F)cc3[nH]2)c1OC (stereo not shown) [pantoprazole],
strong inhibitors,O=C(c1ccc(OCCN2CCCCC2)cc1)c1c(-c2ccc(O)cc2)sc2cc(O)ccc12 [raloxifene],Concentration-dependent inhibitory effect toward CYP2C9 [1]: significant inhibitory effect

# Second part, the compound before the results:
Structure (SMILES),Modulation of CYP2C9 activity in visual high-throughput screen [1],also measured
CCCCCCCCCCCc1cc(=O)c2ccccc2n1C [1-methyl-2-undecyl-4(1H) quinolone],,"Inhibitor of CYP2C9 identified from E. rutaecarpa extract ([1]; DDAM fluorescence assay, pre-HPLC fractions): novel inhibitor"
Nc1ccc(S(=O)(=O)Nc2ccnn2-c2ccccc2)cc1 [sulfaphenazole],strong inhibitors,Effect on demethylation of DDAM [2]: inhibited; Concentration-dependent inhibitory effect toward CYP2C9 [1]: significant inhibitory effect
C[C@]12CC[C@@H]3c4ccc(O)cc4CC[C@H]3[C@@H]1CC[C@@H]2O [estradiol],activators,
NCCc1ccc(O)c(O)c1 [dopamine],activators,
Nc1ccc(S(=O)(=O)c2ccc(N)cc2)cc1 [dapsone],activators,
Clc1ccc(COC(Cn2ccnc2)c2ccc(Cl)cc2Cl)c(Cl)c1 (stereo not shown) [miconazole],strong inhibitors,Concentration-dependent inhibitory effect toward CYP2C9 [1]: significant inhibitory effect
C#C[C@]1(O)CC[C@H]2[C@@H]3CCC4=Cc5oncc5C[C@]4(C)[C@H]3CC[C@@]21C [danazol],,Effect of pre-treatment on intracellular fluorescence of MXMB [3]: remarkable suppression of intracellular fluorescence
